Source: patent publication US20210156844A1, “TMEM16A Modulation for Diagnostic or Therapeutic Use in Pulmonary Hypertension (PH)” (Bayer Aktiengesellschaft, priority 2017, published 2021)

Key:
human PASMC = assay: PASMC proliferation in vitro, [3H]-thymidine incorporation; assay type: cell-based; details: benzbromarone 30 μM; PDGF-BB 10 ng/ml; human donor PASMC
Description: Human PASMC were seeded on 96-well plates. Cells were serum-starved for 12 hours, then underwent a 30 min pre-treatment with benzbromarone (30 μM) or vehicle. After the pre-treatment, serum-free SMC Medium containing PDGF-BB (10 ng/ml, Sigma) and benzbromarone was applied. The proliferation was determined by [^3H]-thymidine incorporation (BIOTREND Chemikalien GmbH, Cologne, Germany) as an index of DNA synthesis, and detected with a scintillation counter (Wallac 1450 MicroBeta TriLux Liquid Scintillation Counter & Luminometer, PerkinElmer, Waltham Mass., USA). Each independent experiment was performed in five replicates using PASMC isolated from six different donor lungs.
In experiments using TMEM16A silencing, cells were first seeded on 6-well plates and transfected with TMEM16A siRNA or control non-silencing RNA as described above. Cells were re-seeded into 96-well plates 24 hours after transfection, starved for 12 hours, then the induction and measurement of proliferation was performed as detailed above.

TMEM16A = target: T1, TMEM16A (Homo sapiens, UniProt Q5XXA6); assay: Measurement of whole-cell Ca2+-activated Cl- current (IClCa), voltage clamp, primary PASMC; assay type: cell-based; details: benzbromarone 30 μM; primary PASMC of both donors and IPAH patients
T1 construct: endogenous in cells; host or cells: primary human PASMC from healthy donors and IPAH patients
T1 sequence (Q5XXA6 1-986): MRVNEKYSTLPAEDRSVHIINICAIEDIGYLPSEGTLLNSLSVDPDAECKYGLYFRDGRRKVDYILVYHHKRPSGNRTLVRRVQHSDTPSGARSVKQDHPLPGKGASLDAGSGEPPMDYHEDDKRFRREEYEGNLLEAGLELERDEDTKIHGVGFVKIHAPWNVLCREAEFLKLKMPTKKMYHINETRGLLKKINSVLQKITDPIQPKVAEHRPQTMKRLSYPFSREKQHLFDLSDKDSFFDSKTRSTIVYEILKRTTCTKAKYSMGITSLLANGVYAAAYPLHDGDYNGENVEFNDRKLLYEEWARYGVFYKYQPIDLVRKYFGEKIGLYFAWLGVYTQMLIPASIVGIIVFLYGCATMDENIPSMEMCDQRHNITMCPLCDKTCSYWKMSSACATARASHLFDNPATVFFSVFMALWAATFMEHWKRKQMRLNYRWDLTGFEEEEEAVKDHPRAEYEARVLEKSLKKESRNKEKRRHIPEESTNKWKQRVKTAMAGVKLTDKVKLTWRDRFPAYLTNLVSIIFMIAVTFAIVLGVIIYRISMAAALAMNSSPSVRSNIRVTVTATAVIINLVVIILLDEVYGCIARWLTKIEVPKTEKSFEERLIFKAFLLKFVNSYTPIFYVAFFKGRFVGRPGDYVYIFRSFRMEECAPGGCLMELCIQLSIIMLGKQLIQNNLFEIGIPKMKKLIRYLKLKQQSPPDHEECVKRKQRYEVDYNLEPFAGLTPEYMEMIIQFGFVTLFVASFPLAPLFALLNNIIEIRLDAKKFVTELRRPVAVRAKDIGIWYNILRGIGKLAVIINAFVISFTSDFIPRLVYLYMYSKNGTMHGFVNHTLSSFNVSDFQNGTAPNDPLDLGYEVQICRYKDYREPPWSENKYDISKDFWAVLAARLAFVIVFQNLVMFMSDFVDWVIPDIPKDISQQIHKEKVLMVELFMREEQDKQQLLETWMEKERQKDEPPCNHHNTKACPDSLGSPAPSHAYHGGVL
Description: For the measurement of whole-cell IClCa, PASMC grown in T-25 tissue culture flasks were freshly harvested with StemPro Accutase (Life Technologies), centrifuged (300 g, 5 min) and resuspended in Complete SMC Medium. PASMC were stored at 4° C. until use and were allowed to attach to glass coverslips for 15-30 min at room temperature before the measurements. Cells were perfused with a bath solution composed of (in mM) NaCl 150, glucose 10, HEPES 10, CaCl2 1, MgCl2 1, pH 7.4 (NaOH). The pipette solution contained (in mM) CsCl 110, TEA-Cl 20, EGTA 5, HEPES 10, Na2ATP 1, CaCl2 4.68, MgCl2 1, pH 7.2 (NaOH). The free Ca^2+ concentration of this solution was 2 μM as calculated with the MaxChelator software. In order to minimize K^+ current contamination of the recordings, after the formation of whole-cell configuration the bath solution was switched to a bath composed of (in mM) NaCl 140, glucose 10, HEPES 10, TEA-Cl 10, CaCl2 1, MgCl2 1, pH 7.4 (NaOH). In order to measure IClCa, the command potential was stepped from a 0 mV holding potential to −40, 0, +40, +80 and +120 mV for 1.5 s, allowing 0.5 s recovery time at the holding potential between each step. The average current measured between 750 and 1500 ms of each voltage step was plotted against the […]. […] Cells from the same batch that were cultured, harvested and recorded under normoxic conditions served as controls.

In the case of `CCc1oc2ccccc2c1C(=O)c1cc(Br)c(O)c(Br)c1` [benzbromarone, (2-Ethyl-3-benzofuranyl)-(3,5-dibrom-4-hydroxyphenyl)ketone], the “PDGF-BB induced PASMC proliferation” value (human PASMC) is reported as “decrease” and the “whole-cell IClCa” value (TMEM16A) is reported as “significantly decreased”.
